Data: patent publication US20190218207A1, “3-(Pyridin-3-yl)-Acrylamide and N-(Pyridin-3-yl)-Acrylamide Derivatives and Their Use as PAK or NAMPT Modulators” (Karyopharm Therapeutics Inc., priority 2015, published 2019)
Where two headings read alike, the source gives them in different places.

What was measured:
Z138 cells = assay: MTT cell proliferation assay, Z138 cells; assay type: cell-based, human
Protocol: (§1) The MTT cell proliferation assay was used to study the cytotoxic properties of the compounds. The assay was performed according to the method described by Roche Molecular Biochemicals, with minor modifications. The assay is based on the cleavage of the tetrazolium salt, MTT, in the presence of an electron-coupling reagent. The water-insoluble formazan salt produced must be solubilized in an additional step. Cells grown in a 96-well tissue culture plate were incubated with the MTT solution for approximately 4 hours. After this incubation period, a water-insoluble formazan dye formed. After solubilization, the formazan dye was quantitated using a scanning multi-well spectrophotometer (ELISA reader). […] The cells were seeded at 5,000-10,000 cells in each well of 96-well plate in 100 μL of fresh culture medium and were allowed to attach overnight. The stock solutions of the compounds were diluted in […] cell culture medium to obtain eight concentrations of each test compound, ranging from 1 nM to 30 μM. […] All optical densities were measured at 490 nm using a Vmax Kinetic Microplate Reader (Molecular Devices). In most cases, the assay was performed in duplicate and the results were presented as a mean percent inhibition to the negative control±SE. The following formula was used to calculate the percent of inhibition: Inhibition (%)=(1-(ODo/OD))×100.
(§2) The compounds were tested against MS751, Z138 and 3T3 cells. The MS751 cell line is derived from a metastasis to lymph node of human cervix from a patient diagnosed with squameous cell carcinoma of the cervix. The Z138 cell line is a mature B-cell acute lymphoblastic leukemia cell line derived from a patient with chronic lumphocytic leukemia. 3T3 cells are standard fibroblast cells; they were originally isolated from Swiss mouse embryo tissue.

3T3 cells = assay: MTT cell proliferation assay, 3T3 cells; assay type: cell-based, mouse; details: 3T3 fibroblast cells, incubation approximately 64-72 hours
Protocol: as §1, §2

MS751 cells = assay: MTT cell proliferation assay, MS751 cells; assay type: cell-based, human; details: incubation approximately 64-72 hours, read-out: MTT Assay IC50, MS 751
Protocol: as §1, §2

[1] = incubation approximately 64-72 hours, read-out: MTT Assay IC50, Z-138

`Cn1c(CNC(=O)/C=C/c2ccc(N)nc2)ccc1-c1ccc(-c2ccc(C(=O)N3CCC(F)(F)CC3)cc2)cc1-c1ccc(F)cc1` [Compound A-012, (E)-3-(6-aminopyridin-3-yl)-N-((5-(4-(4,4-difluoropiperidine-1-carbonyl)-4″-fluoro-[1,1′:3′,1″-terphenyl]-4′-yl)-1-methyl-1H-pyrrol-2-yl)methyl)acrylamide] was tested. Which IC50 (Z138 cells; Homo sapiens, Z-138, incubation approximately 64-72 hours) did it give?
Its IC50 is over 10 µM.

What about the IC50 (3T3 cells; Mus musculus, NIH3T3) of the same molecule?
The IC50 was over 10 µM.

What about the IC50 (MS751 cells; Homo sapiens) of the same molecule?
Its IC50 is over 10 µM.

With “(E)-3-(6-aminopyridin-3-yl)-N-((5-(1-chloro-6-(4,4-difluoropiperidine-1-carbonyl)naphthalen-2-yl)furan-2-yl)methyl)acrylamide [Compound A004]” as the molecule, how does the IC50 (Z138 cells; [1]) read?
Its IC50 is under 1 µM.

And the IC50 (3T3 cells)?
The IC50 was over 10 µM.

What about the IC50 (MS751 cells) of the same molecule?
The IC50 was under 1 µM.

“(E)-(4′-(2′-(2-(6-aminopyridin-3-yl)vinyl)-5,5′-bioxazol-2-yl)-3′-(trifluoromethyl)biphenyl-4-yl)(3,3-difluoroazetidin-1-yl)methanone [Compound A027]” was tested. Which IC50 (Z138 cells; [1]) did it give?
Its IC50 is over 10 µM.

And the IC50 (3T3 cells)?
Its IC50 is over 10 µM.

And the IC50 (MS751 cells)?
Its IC50 is over 10 µM.
